pIC50: −log10 of the molar value. Read-outs that look alike come from different tables or passages of the source. Bridge positions count the residues as written; N and C are the ends. Square brackets hold non-standard residues; d marks the D form. Peptide text beside a SMILES is read from it. * marks the point of attachment. Fmoc = O=C(OCC1c2ccccc2-c2ccccc21)*; Aun = NCCCCCCCCCCC(=O)O
What was measured:
[1] = target: PCSK9 (Homo sapiens, UniProt Q8NBP7); assay: PCSK9/EGF(A) TR-FRET binding assay; conditions: TR-FRET; Table 8D, disulfide-cyclized extension peptides; read-out: PCSK9/EGF(A) IC50
Sequence of PCSK9 (Q8NBP7 153-692): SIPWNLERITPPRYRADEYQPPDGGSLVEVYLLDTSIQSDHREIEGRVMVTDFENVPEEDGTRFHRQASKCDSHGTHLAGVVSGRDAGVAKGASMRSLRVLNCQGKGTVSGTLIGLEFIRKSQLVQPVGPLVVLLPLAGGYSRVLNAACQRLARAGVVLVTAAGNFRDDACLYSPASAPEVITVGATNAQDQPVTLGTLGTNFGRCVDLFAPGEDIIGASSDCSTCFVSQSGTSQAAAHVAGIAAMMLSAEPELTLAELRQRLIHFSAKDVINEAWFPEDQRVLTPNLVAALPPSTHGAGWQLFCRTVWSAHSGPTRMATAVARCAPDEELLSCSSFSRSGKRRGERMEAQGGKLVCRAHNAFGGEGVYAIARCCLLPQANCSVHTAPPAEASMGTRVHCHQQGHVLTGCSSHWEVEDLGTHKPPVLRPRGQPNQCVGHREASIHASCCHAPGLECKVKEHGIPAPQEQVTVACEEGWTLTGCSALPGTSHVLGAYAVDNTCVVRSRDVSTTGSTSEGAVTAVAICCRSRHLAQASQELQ
Sequence of PCSK9 (Q8NBP7 31-152 partner limits assumed): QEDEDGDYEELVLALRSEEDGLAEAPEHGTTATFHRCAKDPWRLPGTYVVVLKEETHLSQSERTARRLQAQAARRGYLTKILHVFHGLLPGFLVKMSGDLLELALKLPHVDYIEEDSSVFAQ
Method: The former was based on a TF-FRET assay to measure the association of the EGF(A) domain of the LDLR to PCSK9 (“PCSK9/EGF(A) binding assay”) whilst the latter was based on a TR-FRET assay to measure binding of Ab20 to PCSK9Δhelix (“PCSK9Δhelix/Ab20 binding assay”).
The ability of compounds to inhibit binding to PCSK9 was evaluated with a panel of time-resolved fluorescence resonance energy transfer (TR-FRET) binding assays. […] The PCSK9Δhelix/Ab20 binding assay evaluated the ability of compounds to compete with Ab20 for binding to the N-terminal groove region in a His-tagged, PCSK9Δhelix construct. […] Signal generation in the PCSK9 binding assays was dependent upon the binding interaction to bring into close proximity the His-tag on the PCSK9 and the Fc-tag on the ligand. Anti-His-APC was bound to the His-tag, and anti-Fc-europium was bound to the Fc-tag. When these two antibodies were in close proximity and were irradiated with light at 340 nm, the europium was excited and emitted energy at 615 nm. This energy was taken up by the APC and was emitted as light at 665 nm. Compounds that competed with the ligand reduced the energy transfer and thus the emission at 665 nm. In the His-EGFA-Fc molecule in the counterscreen, the two tags were always in close proximity, thus any reduction in emission at 665 nm was due to interference with the detection system.
Compounds were solubilized and dilutions were prepared in DMSO. […] The plate was centrifuged to mix the well contents and allowed to incubate for 30 min. […] The TR-FRET signal was read on a ViewLux reader (PerkinElmer) with excitation at 340 nm and emission at 615 and 665 nm with a 50-μs time delay between excitation and measurement of emission. The TR-FRET ratio was calculated as the fluorescence emission at 665 nm divided by the fluorescence emission at 615 nm. The normalized TR-FRET ratios were plotted as a function of the compound concentrations, and the IC50 values were determined using a 4-parameter logistic regression.
In black 1536-well assay plates (MaKO, Aurora® Microplates, Whitefish, Mont.), 40 nL of peptide in DMSO were preincubated with 2 μL His-tagged PCSK9 plus anti-His-allophycocyanin in assay buffer (50 mM Tris-HCl, pH 7.5, 150 mM NaCl, 2 mM CaCl2, 0.01% Tween®-20, 0.1% bovine gamma globulins, and protease inhibitor cocktail) for 30 min. Then 2 μL of Fc-tagged ligand and anti-Fc-europium in assay buffer were added and allowed to incubate for 2 h.

[2] = test system: His-EGF(A)-Fc; assay: His-EGF(A)-Fc TR-FRET counterscreen
[3] = target: T1, PCSK9Δhelix (Homo sapiens, UniProt Q8NBP7); assay: PCSK9Δhelix/Ab20 TR-FRET binding assay
T1 construct: Human PCSK9 construct M1-Q692 with an engineered TEV site (residue deletion Y166, R167); made in house; host or cells: CHO
T1 sequence (Q8NBP7 with tags, fused parts or gaps limits assumed): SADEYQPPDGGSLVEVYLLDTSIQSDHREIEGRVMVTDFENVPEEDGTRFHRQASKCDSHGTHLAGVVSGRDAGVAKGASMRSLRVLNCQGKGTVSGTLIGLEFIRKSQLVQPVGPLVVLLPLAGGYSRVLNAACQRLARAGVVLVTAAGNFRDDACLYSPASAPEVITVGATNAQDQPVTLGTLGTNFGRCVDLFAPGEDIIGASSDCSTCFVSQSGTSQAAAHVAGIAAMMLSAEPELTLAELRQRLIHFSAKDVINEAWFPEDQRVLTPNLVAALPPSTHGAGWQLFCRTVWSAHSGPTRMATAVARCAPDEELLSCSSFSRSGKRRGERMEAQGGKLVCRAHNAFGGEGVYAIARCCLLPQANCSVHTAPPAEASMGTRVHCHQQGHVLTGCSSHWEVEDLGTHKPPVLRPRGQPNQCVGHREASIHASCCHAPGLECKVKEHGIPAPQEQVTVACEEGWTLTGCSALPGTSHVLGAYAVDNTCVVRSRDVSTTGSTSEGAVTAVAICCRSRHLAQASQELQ
T1 sequence (Q8NBP7 31-152 partner limits assumed): as the sequence (Q8NBP7 31-152 partner limits assumed) above

[4] = TR-FRET counterscreen, Table 8D, * = some inhibition at highest concentrations, not sufficient to fit an IC50
[5] = TR-FRET, Example 7, read-out: PCSK9Δhelix/Ab20 IC50

Molecule | pIC50 [2, 4] | pIC50 [3, 5] | pIC50 ([2]; counterscreen, Example 7) | also measured
CC[C@H](C)[C@@H]1NC(=O)[C@H](CCCNC(=N)N)NC(=O)[C@H](CCC(N)=O)NC(=O)[C@H](CC(C)C)NC(=O)[C@H](CC(N)=O)NC(=O)[C@H](Cc2c[nH]c3ccccc23)NC(=O)[C@@H]2CCCN2C(=O)[C@H](CC(C)C)NC(=O)[C@H](CCCNC(=N)N)NC(=O)[C@H](NC(C)=O)CSSC[C@@H](C(N)=O)NC(=O)[C@@H]2CCCN2C(=O)[C@H](CC(C)C)NC(=O)CNC1=O [Compound 110] (Ac-[dC]RLPWNLQRIGLPC-NH2; disulfide 1-14) | < 4.30 | – | – | pIC50 [1]: < 4.30
CC[C@H](C)[C@@H]1NC(=O)[C@H](CCCNC(=N)N)NC(=O)[C@H](CCC(N)=O)NC(=O)[C@H](CC(C)C)NC(=O)[C@H](CC(N)=O)NC(=O)[C@H](Cc2c[nH]c3ccccc23)NC(=O)[C@@H]2CCCN2C(=O)[C@H](CC(C)C)NC(=O)[C@H](CCCNC(=N)N)NC(=O)[C@@H](NC(=O)CNC(=O)CNC(=O)[C@H](CO)NC(=O)CNC(=O)[C@@H](NC(=O)[C@H](Cc2c[nH]c3ccccc23)NC(=O)[C@H](CC(=O)O)NC(=O)[C@H](CC(C)C)NC(=O)[C@H](Cc2ccc(O)cc2)NC(=O)[C@H](CCC(=O)O)NC(=O)[C@H](CCC(=O)O)NC(=O)[C@H](Cc2c[nH]c3ccccc23)NC(=O)[C@H](CO)NC(=O)[C@@H](NC(=O)[C@H](Cc2ccccc2)NC(=O)[C@@H](NC(=O)[C@@H](NC(C)=O)[C@@H](C)O)C(C)C)[C@@H](C)O)C(C)C)CSSC[C@@H](C(N)=O)NC(=O)[C@@H]2CCCN2C(=O)[C@H](CC(C)C)NC(=O)CNC1=O [Compound 25] (Ac-TVFTSWEEYLDWVGSGGCRLPWNLQRIGLPC-NH2; disulfide 18-31) | – | 7.08 | < 4.30 | inhibition in the PCSK9Δhelix/Ab20 binding assay [3]: potent inhibitors
CC[C@H](C)[C@H](NC(=O)[C@H](CCCNC(=N)N)NC(=O)[C@H](CCCCN)NC(=O)[C@H](CC(C)C)NC(=O)[C@H](CC(N)=O)NC(=O)[C@H](Cc1c[nH]c2ccccc12)NC(=O)[C@H](C)NC(=O)CCCCCNC(=O)[C@@H](NC(=O)[C@H](Cc1c[nH]c2ccccc12)NC(=O)[C@H](CC(=O)O)NC(=O)[C@H](CC(C)C)NC(=O)[C@H](Cc1ccc(O)cc1)NC(=O)[C@H](CCC(=O)O)NC(=O)[C@H](CCC(=O)O)NC(=O)[C@H](Cc1c[nH]c2ccccc12)NC(=O)[C@H](CO)NC(=O)[C@@H](NC(=O)[C@H](Cc1ccccc1)NC(=O)[C@@H](NC(=O)[C@@H](NC(C)=O)[C@@H](C)O)C(C)C)[C@@H](C)O)C(C)C)C(N)=O [Compound 93] | – | 7.80 | < 4.30 | –
CC(=O)N[C@H]1CSSC[C@@H](C(N)=O)NC(=O)CCCCCCCCCCNC(=O)[C@H](CCCNC(=N)N)NC(=O)[C@H](CCC(N)=O)NC(=O)[C@H](CC(C)C)NC(=O)[C@H](CC(N)=O)NC(=O)[C@H](Cc2c[nH]c3ccccc23)NC(=O)[C@@H]2CCCN2C(=O)[C@H](CC(C)C)NC(=O)[C@H](CCCNC(=N)N)NC1=O [Compound 83] (Ac-CRLPWNLQR[Aun]C-NH2; disulfide 1-11 (inferred)) | < 4.30 | – | – | inhibition in the PCSK9Δhelix/Ab20 binding assay [3]: removes inhibition
CC[C@H](C)[C@H](NC(=O)[C@H](CCCNC(=N)N)NC(=O)[C@H](CCCCN)NC(=O)[C@H](CC(C)C)NC(=O)[C@H](CC(N)=O)NC(=O)[C@H](Cc1c[nH]c2ccccc12)NC(=O)[C@H](C)NC(=O)CCCCCNC(=O)[C@@H](NC(=O)[C@H](Cc1c[nH]c2ccccc12)NC(=O)[C@H](CC(=O)O)NC(=O)[C@H](CC(C)C)NC(=O)[C@H](Cc1ccc(O)cc1)NC(=O)[C@H](CCC(=O)O)NC(=O)[C@H](CCC(=O)O)NC(=O)[C@H](Cc1c[nH]c2ccccc12)NC(=O)[C@H](CO)NC(=O)[C@@H](NC(=O)[C@H](Cc1ccccc1)NC(=O)[C@@H](NC(=O)[C@@H](NC(C)=O)[C@@H](C)O)C(C)C)[C@@H](C)O)C(C)C)C(=O)NCC(N)=O [Compound 92] | – | 7.89 | < 4.30 | –
CC[C@H](C)[C@@H]1NC(=O)[C@H](CCCNC(=N)N)NC(=O)[C@H](CCCCN)NC(=O)[C@H](CC(C)C)NC(=O)[C@H](CC(N)=O)NC(=O)[C@H](Cc2c[nH]c3ccccc23)NC(=O)[C@H](CC(C)C)NC(=O)[C@@H](NC(=O)[C@H](CCSC)NC(C)=O)CSSC[C@@H](C(=O)N[C@@H](CCC(=O)O)C(=O)N[C@@H](Cc2ccc(O)cc2)C(N)=O)NC(=O)[C@H](CCC(N)=O)NC(=O)[C@H](CO)NC(=O)CNC1=O [Compound 63] (Ac-MCLWNLKRIGSQCEY-NH2; disulfide 2-13) | 4.39 | – | – | inhibition in the PCSK9Δhelix/Ab20 binding assay [3]: low micromolar range; pIC50 ([3]; TR-FRET, Table 8D, disulfide-cyclized extension peptides, read-out: PCSK9Δhelix/Ab20 IC50): 5.22
CC(=O)N[C@H](C(=O)N[C@H](C(=O)N[C@@H](Cc1ccccc1)C(=O)N[C@H](C(=O)N[C@@H](CO)C(=O)N[C@@H](Cc1c[nH]c2ccccc12)C(=O)N[C@@H](CCC(=O)O)C(=O)N[C@@H](CCC(=O)O)C(=O)N[C@@H](Cc1ccc(O)cc1)C(=O)N[C@@H](CC(C)C)C(=O)N[C@@H](CC(=O)O)C(=O)N[C@@H](Cc1c[nH]c2ccccc12)C(=O)N[C@H](C(=O)NCCCCCCC(=O)N[C@@H](CCCCN)C(=O)N[C@@H](CC(C)C)C(=O)N[C@@H](Cc1c[nH]c2ccccc12)C(=O)N[C@@H](CC(N)=O)C(=O)N[C@@H](CC(C)C)C(=O)NCC(=O)N[C@@H](CCCNC(=N)N)C(=O)N[C@H](C(N)=O)C(C)C)C(C)C)[C@@H](C)O)C(C)C)[C@@H](C)O [Compound 16] | – | 7.55 | < 4.30 | –
Ac-TVFTSWEEYLDWVGGSGKLWNLGRV-NH2 [Compound 8] | – | 7.31 | < 4.30 | –
CC[C@H](C)[C@@H]1NC(=O)[C@H](CCCNC(=N)N)NC(=O)[C@H](CCCCN)NC(=O)[C@H](CC(C)C)NC(=O)[C@H](CC(N)=O)NC(=O)[C@H](Cc2c[nH]c3ccccc23)NC(=O)[C@@H](NC(=O)CNC(=O)[C@H](CO)NC(=O)CNC(=O)OCC2c3ccccc3-c3ccccc32)CSSC[C@@H](C(N)=O)NC(=O)CNC(=O)[C@H](CCC(N)=O)NC(=O)[C@H](CO)NC(=O)CNC1=O [Compound 98] (Fmoc-GSGCWNLKRIGSQGC-NH2; disulfide 4-15) | < 4.30 | – | – | pIC50 ([3]; PCSK9Δhelix/Ab20 IC50, TR-FRET, Example 7): 5.44
Ac-TVFTSWEEYLDWVGSGKLWNLG-NH2 [Compound 5] | – | 4.95 | < 4.30 | –
CC[C@H](C)[C@@H]1NC(=O)[C@H](CCCNC(=N)N)NC(=O)[C@H](CCCCN)NC(=O)[C@H](CC(C)C)NC(=O)[C@H](CC(N)=O)NC(=O)[C@H](Cc2c[nH]c3ccccc23)NC(=O)[C@@H](NC(=O)CNC(=O)[C@H](CO)NC(=O)CNC(C)=O)CSSC[C@@H](C(=O)N[C@@H](Cc2c[nH]c3ccccc23)C(N)=O)NC(=O)CNC(=O)[C@H](CCC(N)=O)NC(=O)[C@H](CO)NC(=O)CNC1=O [Compound 40] (Ac-GSGCWNLKRIGSQGCW-NH2; disulfide 4-15) | < 4.30 | – | – | pIC50 ([3]; PCSK9Δhelix/Ab20 IC50, TR-FRET, Table 8D, disulfide-cyclized extension peptides): 5.62
Ac-TVFTSWEEYLDWVGSGKLWNLGR-NH2 [Compound 4] | – | 5.82 | < 4.30 | –
CC(=O)N[C@H](C(=O)N[C@H](C(=O)N[C@@H](Cc1ccccc1)C(=O)N[C@H](C(=O)N[C@@H](CO)C(=O)N[C@@H](Cc1c[nH]c2ccccc12)C(=O)N[C@@H](CCC(=O)O)C(=O)N[C@@H](CCC(=O)O)C(=O)N[C@@H](Cc1ccc(O)cc1)C(=O)N[C@@H](CC(C)C)C(=O)N[C@@H](CC(=O)O)C(=O)N[C@@H](Cc1c[nH]c2ccccc12)C(=O)N[C@H](C(=O)NCCCCCC(=O)N[C@@H](C)C(=O)N[C@@H](Cc1c[nH]c2ccccc12)C(=O)N[C@@H](CC(N)=O)C(=O)N[C@@H](CC(C)C)C(=O)N[C@@H](CCCCN)C(=O)N[C@@H](CCCNC(=N)N)C(N)=O)C(C)C)[C@@H](C)O)C(C)C)[C@@H](C)O [Compound 94] | – | 5.85 | < 4.30 | –
CC(=O)N[C@H](C(=O)N[C@H](C(=O)N[C@@H](Cc1ccccc1)C(=O)N[C@H](C(=O)N[C@@H](CO)C(=O)N[C@@H](Cc1c[nH]c2ccccc12)C(=O)N[C@@H](CCC(=O)O)C(=O)N[C@@H](CCC(=O)O)C(=O)N[C@@H](Cc1ccc(O)cc1)C(=O)N[C@@H](CC(C)C)C(=O)N[C@@H](CC(=O)O)C(=O)N[C@@H](Cc1c[nH]c2ccccc12)C(=O)N[C@H](C(=O)NCCCCCC(=O)N[C@@H](CCCCN)C(=O)N[C@@H](CC(C)C)C(=O)N[C@@H](Cc1c[nH]c2ccccc12)C(=O)N[C@@H](CC(N)=O)C(=O)N[C@@H](CC(C)C)C(=O)NCC(=O)N[C@@H](CCCNC(=N)N)C(=O)N[C@H](C(N)=O)C(C)C)C(C)C)[C@@H](C)O)C(C)C)[C@@H](C)O [Compound 18] | – | 7.40 | < 4.30 | –
Ac-TVFTSWEEYLDWVGSGKLWNL-NH2 [Compound 6] | – | 5.00 | < 4.30 | –
CC[C@H](C)[C@@H]1NC(=O)[C@H](CCCNC(=N)N)NC(=O)[C@H](CCC(N)=O)NC(=O)[C@H](CC(C)C)NC(=O)[C@H](CC(N)=O)NC(=O)[C@H](Cc2c[nH]c3ccccc23)NC(=O)[C@@H]2CCCN2C(=O)[C@H](CC(C)C)NC(=O)[C@H](Cc2ccccc2)NC(=O)[C@@H](NC(=O)CNC(=O)CNC(=O)[C@H](CO)NC(=O)CNC(=O)[C@@H](NC(=O)[C@H](Cc2c[nH]c3ccccc23)NC(=O)[C@H](CC(=O)O)NC(=O)[C@H](CC(C)C)NC(=O)[C@H](Cc2ccc(O)cc2)NC(=O)[C@H](CCC(=O)O)NC(=O)[C@H](CCC(=O)O)NC(=O)[C@H](Cc2c[nH]c3ccccc23)NC(=O)[C@H](CO)NC(=O)[C@@H](NC(=O)[C@H](Cc2ccccc2)NC(=O)[C@@H](NC(=O)[C@@H](NC(C)=O)[C@@H](C)O)C(C)C)[C@@H](C)O)C(C)C)CSSC[C@@H](C(N)=O)NC(=O)[C@H](CC(C)C)NC(=O)[C@H](CC(C)C)NC(=O)CNC1=O [Compound 38] (Ac-TVFTSWEEYLDWVGSGGCFLPWNLQRIGLLC-NH2; disulfide 18-31) | – | 8.52 | < 4.30 | inhibition in the PCSK9Δhelix/Ab20 binding assay [3]: potent inhibitors

From patent US11034725B2, “Compositions and methods for treating cardiovascular disease” (Genentech, Inc., priority 2016, dated 2021)
